The supplement of paper PMC10307832

Experiments:
Test in all cases: relative viability (nuclei count vs DMSO), 5 days (fraction); higher = more cells survive
[1] = compound: CC(C)C[C@@H](C(=O)N[C@H](C(=O)OC1CCCC1)c1ccccc1)[C@H](O)C(=O)NO [Tosedostat] + COc1cc2c(Oc3ccc(NC(=O)C4(C(=O)Nc5ccc(F)cc5)CC4)cc3F)ccnc2cc1OCCCN1CCOCC1 [Foretinib] (partner 0.25 µM)
Procedure, shortened: (§1)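 Lung cancer cell lines in 1536-well plates were dosed by pin tool the day after seeding, either with one drug alone or with a fixed anchor-drug dose plus five library-drug doses (not always all listed) in √10 steps. After 5 days, cells were fixed and their nuclei stained in one step (final 0.05% Triton X-100, 1% formaldehyde, 1 ug/ml Hoechst), then counted on 4× images. Relative viability is the nuclei count in treated wells divided by that in vehicle wells. Values are medians of duplicate plates.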

[2] = compound: CC(C)C[C@@H](C(=O)N[C@H](C(=O)OC1CCCC1)c1ccccc1)[C@H](O)C(=O)NO [Tosedostat] + O=C(CCCCCCC(=O)Nc1ccccc1)NO [Vorinostat] (partner 1 µM)
Procedure, shortened: as §1

[3] = compound: CC1=NN=C(O1)C2=NN=C(C=C2)N3CCC(CC3)OC4=C(C=CC(=C4)F)Cl + CC(=O)Nc1cccc(-n2c(=O)n(C3CC3)c(=O)c3c(Nc4ccc(I)cc4F)n(C)c(=O)c(C)c32)c1 [Trametinib] (partner 0.02 µM)
Procedure, shortened: as §1

[4] = compound: CC1=NN=C(O1)C2=NN=C(C=C2)N3CCC(CC3)OC4=C(C=CC(=C4)F)Cl + CC1(C)CCC(c2ccc(Cl)cc2)=C(CN2CCN(c3ccc(C(=O)NS(=O)(=O)c4ccc(N[C@H](CCN5CCOCC5)CSc5ccccc5)c(S(=O)(=O)C(F)(F)F)c4)cc3)CC2)C1 [Navitoclax] (partner 0.5 µM)
Procedure, shortened: as §1

Cell Line	relative viability ([1]; first compound 0.02 µM)	relative viability ([1]; first compound 0.06325 µM)	relative viability ([1]; first compound 0.2 µM)	relative viability ([1]; first compound 0.6325 µM)	relative viability ([1]; first compound 2 µM)	relative viability ([2]; first compound 0.02 µM)	relative viability ([2]; first compound 0.06325 µM)	relative viability ([2]; first compound 0.2 µM)	relative viability ([2]; first compound 0.6325 µM)	relative viability ([2]; first compound 2 µM)	relative viability ([3]; first compound 0.253 µM)	relative viability ([3]; first compound 0.8 µM)	relative viability ([3]; first compound 2.53 µM)	relative viability ([3]; first compound 8 µM)	relative viability ([4]; first compound 0.253 µM)	relative viability ([4]; first compound 0.8 µM)	relative viability ([4]; first compound 2.53 µM)	relative viability ([4]; first compound 8 µM)
NCI-H322M	0.995	0.899	0.93	0.904	0.857	0.855	0.958	0.887	0.995	0.802	0.563	0.487	0.477	0.52	1.17	1.11	1.11	1
NCI-H441	0.906	1.1	0.992	0.63	0.604	0.809	0.654	0.759	0.55	0.547	0.343	0.327	0.462	0.409	0.536	0.654	0.544	0.472
NCI-H460	1.05	1	0.968	0.977	1	0.83	0.708	0.676	0.699	0.714	0.0953	0.176	0.175	0.15	0.429	0.42	0.45	0.392
NCI-H520	0.807	0.776		0.834	0.819	0.737	0.77	0.59	0.839	0.761	0.656	0.578	0.648	0.475	0.926	0.566	1.05	1.09
NCI-H596	0.905	0.872	0.938	0.764	0.839	0.731	0.706	0.816	0.692	0.616	0.687	0.811	0.714	0.692		0.756	0.894	0.723
NCI-H647	1.36	1.14	1.18	1.04	1.17	0.842	0.502	0.566	0.503	0.686	0.287	0.5	0.45	0.297	0.744	0.704	0.821	0.679
NCI-H727	0.908	0.622		0.602	0.487	1.18	1.26	1.1	0.886	0.683	0.467	0.402	0.385	0.341	0.479	0.36	0.368	0.262
NCI-H838	1.1	1.02	1.04	1.08	1.13	0.772	0.732	0.808	0.833	0.87	0.406	0.429	0.478	0.428	0.959	0.954	1.05	0.979
NCI-H1355	0.93	0.991	0.99	0.92	0.883	0.654	0.631	0.705	0.543	0.604	0.317	0.379	0.374	0.371			0.947	0.763
NCI-H1395	0.917	1.05	0.952	0.918	0.871	0.773	0.77	0.743	0.742	0.595	0.963	0.978	0.89	1	1.17	0.859	1	1.13
NCI-H1437	1.3	1.32	1.34	1.25	1.25	1.04	0.754	0.976	1.12	0.958	0.391	0.367	0.491	0.375	0.571	0.66	0.564	0.46
NCI-H1650	1.05	0.955	1.03	0.985	0.967	0.51	0.641	0.735	0.841	0.704	0.352	0.482	0.481	0.49		0.895	0.816	0.868
NCI-H1651	0.864	0.736	0.764	0.906	0.688	0.564	0.609	0.548	0.556	0.472	0.651	0.621	0.609	0.576	0.809	0.783	0.782	0.717
NCI-H1666	1.08	1.01	0.945	0.899	1.05	1.06	1.16	1.06	1.04	1.05	0.764	0.761	0.834	0.834	0.706	0.667	0.723	0.698
NCI-H1734	0.93	0.859	0.826	0.818	0.652	0.949	0.757	0.886	0.612	0.514	0.642	0.652	0.663	0.597	0.826	0.682	0.843	0.754
NCI-H1755	1.01	0.944	1	0.992	0.931	0.912	0.795	0.732	0.768	0.637	0.619	0.659	0.645	0.643	0.615	0.682	0.676	0.655
NCI-H1793	0.559	0.789	0.742	0.629	0.637	0.683	0.72	0.714	0.665	0.684	0.434	0.511	0.509	0.403	0.45	0.397	0.371	0.282
NCI-H1915	1.13	1.1	1.14	1.05	0.947	0.51	0.457	0.516	0.503	0.527	0.293	0.267	0.277	0.239	0.372	0.281	0.348	0.277

Cell Line	relative viability ([1]; first compound 0.02 µM)	relative viability ([1]; first compound 0.06325 µM)	relative viability ([1]; first compound 0.2 µM)	relative viability ([1]; first compound 0.6325 µM)	relative viability ([1]; first compound 2 µM)	relative viability ([2]; first compound 0.02 µM)	relative viability ([2]; first compound 0.06325 µM)	relative viability ([2]; first compound 0.2 µM)	relative viability ([2]; first compound 0.6325 µM)	relative viability ([2]; first compound 2 µM)	relative viability ([3]; first compound 0.253 µM)	relative viability ([3]; first compound 0.8 µM)	relative viability ([3]; first compound 2.53 µM)	relative viability ([3]; first compound 8 µM)	relative viability ([4]; first compound 0.253 µM)	relative viability ([4]; first compound 0.8 µM)	relative viability ([4]; first compound 2.53 µM)	relative viability ([4]; first compound 8 µM)
NCI-H1944	0.984	0.787	0.864	0.822	0.773	0.632	0.505	0.653	0.523	0.556	0.339	0.324	0.37	0.342	0.637	0.665	0.733	0.672
NCI-H1975	0.986	0.985	1.12	0.71	0.699	0.741	0.742	0.678	0.611	0.622	0.171	0.307	0.373	0.385		0.82	0.838	0.882
NCI-H1993	0.72	0.565	0.793	0.675	0.534	0.732	0.728	0.588	0.608	0.548	0.453	0.523	0.655	0.593	0.804	0.824	0.876	0.878
NCI-H2009	1.34	1.15	1.19	1.11	1.09	0.808	0.659	0.736	0.633	0.645	0.257	0.23	0.233	0.174	0.667	0.671	0.614	0.54
NCI-H2023	0.782	0.779	0.764		0.808	0.641	0.547	0.62	0.358	0.501	0.36	0.419	0.388	0.301	0.486	0.557	0.565	0.442
NCI-H2085	0.919	0.971	0.915	0.965	0.875		0.831	0.748	0.897	0.74	0.326	0.514	0.423	0.363	0.9	0.919	0.908	0.698
NCI-H2087	1.3	1.13	1.06	0.98	0.941	0.718	0.667	0.66	0.735	0.667	0.167	0.196	0.244	0.175	0.701	0.713	0.724	0.63
NCI-H2126	1.12	1.27	1.25	1.07	1.12	0.635	0.822	0.81	0.701	0.79	0.528	0.532	0.504	0.486	0.785	0.759	0.747	0.645
NCI-H2170	1.01	1.04	0.958	0.959	1.05	0.923	0.786	0.963	0.724	0.777	0.377	0.392	0.368	0.356	0.464	0.421	0.556	0.417
NCI-H2228	0.998	0.774	1.11	0.768	0.751	0.615	0.348	0.548	0.25	0.236	0.373	0.41	0.548	0.612	0.63	0.592	0.756	0.526
NCI-H2347	0.711	0.731	1.04	0.955	0.969	0.496	0.451	0.681	0.498	0.575	0.234	0.288	0.256	0.246	0.643	0.533	0.62	0.532
NCI-H2405	1.03	1.02	1.07	1.02	0.932	1.06	1.12	0.955	0.841	0.798	0.526	0.451	0.432	0.411	0.902	0.722	0.784	0.83
NCI-H3122	1.01	0.901	1.01	0.967	1.07	1.02	1.06	1.46	0.879	0.954	0.173	0.224	0.224	0.232	0.564	0.612	0.691	0.46
PC-3 [JPC-3]	1.01	1.02	0.997	0.778	0.65	0.861	0.949	0.656	0.606	0.561	0.634	0.684	0.668	0.748	0.764	0.691	0.796	0.722
PC-14	0.948	0.936	0.987	0.868	0.912	0.819	0.653	0.712	0.58	0.458	0.732	0.658	0.582	0.428	0.742	0.717	0.719	0.702
RERF-LC-KJ	0.851	0.912	0.77	0.884	0.8	0.692	0.676	0.604	0.681	0.619	0.665	0.593	0.595	0.612	0.781		0.671	0.765
SK-LU-1	0.975	0.724	0.662	0.792	0.652	0.897	0.721	0.717	0.677	0.717	0.47	0.417	0.531	0.407	0.765	0.957	0.706	0.531
